From US8969294B2 (Istituto di Recerche di Biologia Molecolare P. Angeletti …, priority 2008, dated 2015)
Like-named read-outs stand apart in the source and are kept apart here. One block for each molecule: values may come before it. Numbered stars: 1 amine (or outer) side, 2 acyl side, 3 side chain; on linkers, the order of the positions; unused ones are H or OH. Bridge positions count the residues as written; N and C are the ends. Square brackets hold non-standard residues; d marks the D form. Side chains are listed from the residue outwards. Peptide text beside a SMILES is read from it. * marks the point of attachment. γGlu = O=C(O)[C@H](CCC(=O)[*:2])N[*:1]; Palmitoyl = CCCCCCCCCCCCCCCC(=O)*; Aib = CC(C)(N)C(=O)O

Molecular target: glucagon receptor (Homo sapiens, UniProt P47871)
Sequence (P47871 26-477): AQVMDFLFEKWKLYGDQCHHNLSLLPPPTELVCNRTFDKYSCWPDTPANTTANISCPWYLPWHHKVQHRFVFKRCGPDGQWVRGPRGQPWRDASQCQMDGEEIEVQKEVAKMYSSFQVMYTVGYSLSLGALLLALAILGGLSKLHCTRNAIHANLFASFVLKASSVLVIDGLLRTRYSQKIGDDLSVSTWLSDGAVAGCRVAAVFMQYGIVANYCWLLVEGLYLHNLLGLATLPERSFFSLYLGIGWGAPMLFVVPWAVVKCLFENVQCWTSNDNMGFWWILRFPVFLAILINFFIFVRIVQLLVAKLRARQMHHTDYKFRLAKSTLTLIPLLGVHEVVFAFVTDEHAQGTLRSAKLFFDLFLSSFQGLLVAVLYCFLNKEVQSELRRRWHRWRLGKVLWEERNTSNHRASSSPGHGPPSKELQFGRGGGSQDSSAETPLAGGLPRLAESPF
Test: Functional assay, cAMP synthesis: luciferase reporter in HEK293 cells co-transfected with glucagon receptor
[1] = EC50 at Glucagon Receptor, Table 31

SMILES: CCCCCCCCCCCCCCCCCC(=O)NCCCC[C@H](NC(=O)[C@H](CC(=O)O)NC(=O)[C@H](CO)NC(=O)[C@@H](NC(=O)[C@H](Cc1ccccc1)NC(=O)[C@@H](NC(=O)CNC(=O)[C@H](CCC(N)=O)NC(=O)C(C)(C)NC(=O)[C@@H](N)Cc1c[nH]cn1)[C@@H](C)O)[C@@H](C)O)C(=O)N[C@@H](CO)C(=O)N[C@@H](CCCCN)C(=O)N[C@@H](Cc1ccc(O)cc1)C(=O)N[C@@H](CC(C)C)C(=O)N[C@@H](CC(=O)O)C(=O)NC(C)(C)C(=O)N[C@@H](CCCNC(=N)N)C(=O)N[C@@H](CCCNC(=N)N)C(=O)N[C@@H](C)C(=O)N[C@@H](CCC(N)=O)C(=O)N[C@@H](CC(=O)O)C(=O)N[C@@H](Cc1ccccc1)C(=O)N[C@H](C(=O)N[C@@H](CCC(N)=O)C(=O)N[C@@H](Cc1c[nH]c2ccccc12)C(=O)N[C@@H](CC(C)C)C(=O)N[C@@H](CCSC)C(=O)N[C@@H](CC(N)=O)C(=O)N[C@H](C(N)=O)[C@@H](C)O)C(C)C [AIB2, AIB16, K10(C18) Gluc Amide]
EC50 (EC50 at the Glucagon receptor, Table 21): 0.016 nM

SMILES: CCCCCCCCCCCCCCCC(=O)N[C@@H](Cc1c[nH]c2ccccc12)C(=O)NCCCC[C@H](NC(=O)[C@H](CC(=O)O)NC(=O)[C@H](CO)NC(=O)[C@@H](NC(=O)[C@H](Cc1ccccc1)NC(=O)[C@@H](NC(=O)CNC(=O)[C@H](CCC(N)=O)NC(=O)[C@H](CO)NC(=O)[C@@H](N)Cc1c[nH]cn1)[C@@H](C)O)[C@@H](C)O)C(=O)N[C@@H](CO)C(=O)N[C@@H](CCCCN)C(=O)N[C@@H](Cc1ccc(O)cc1)C(=O)N[C@@H](CC(C)C)C(=O)N[C@@H](CC(=O)O)C(=O)N[C@@H](CCC(=O)O)C(=O)N[C@@H](CCCNC(=N)N)C(=O)N[C@@H](CCCNC(=N)N)C(=O)N[C@@H](C)C(=O)N[C@@H](CCCCN)C(=O)N[C@@H](CC(=O)O)C(=O)N[C@@H](Cc1ccccc1)C(=O)N[C@H](C(=O)N[C@@H](CCC(N)=O)C(=O)N[C@@H](Cc1c[nH]c2ccccc12)C(=O)N[C@@H](CC(C)C)C(=O)N[C@@H](CCSC)C(=O)N[C@@H](CC(N)=O)C(=O)N[C@H](C(N)=O)[C@@H](C)O)C(C)C [E16 K20-glucagon-NH2 with K^10—W—C16]
EC50 (EC50, Glucagon Receptor, Table 13): 0.14 nM

SMILES: CSCC[C@H](NC(=O)[C@H](CC(C)C)NC(=O)[C@H](Cc1c[nH]c2ccccc12)NC(=O)[C@H](CC(N)=O)NC(=O)[C@@H](NC(=O)[C@H](Cc1ccccc1)NC(=O)[C@H](CCC(=O)O)NC(=O)[C@@H]1CCCCNC(=O)CC[C@H](NC(=O)[C@H](CC(=O)O)NC(=O)[C@H](CC(C)C)NC(=O)[C@H](Cc2ccc(O)cc2)NC(=O)[C@H](CCCCN)NC(=O)[C@H](CO)NC(=O)[C@H](Cc2ccc(O)cc2)NC(=O)[C@H](CC(=O)O)NC(=O)[C@H](CO)NC(=O)[C@@H](NC(=O)[C@H](Cc2ccccc2)NC(=O)[C@@H](NC(=O)CNC(=O)[C@H](CCC(N)=O)NC(=O)[C@H](CO)NC(=O)[C@@H](N)Cc2ccc(O)cc2)[C@@H](C)O)[C@@H](C)O)C(=O)N[C@@H](CCC(N)=O)C(=O)N[C@@H](C)C(=O)N[C@@H](C)C(=O)N1)C(C)C)C(=O)N[C@@H](CC(N)=O)C(=O)NCC(=O)NCC(=O)N1CCC[C@H]1C(=O)N[C@@H](CO)C(=O)N[C@@H](CO)C(=O)NCC(=O)N[C@@H](C)C(=O)N1CCC[C@H]1C(=O)N1CCC[C@H]1C(=O)N1CCC[C@H]1C(=O)N[C@@H](CO)C(N)=O [SEQ ID NO: 555] (H-YSQGTFTSDYSKYLDEQAAKEFVNWLMNGGPSSGAPPPS-NH2; lactam 16-20; N-terminus assumed)
EC50 (EC50, Glucagon receptor, Table 18): 0.044 nM

SMILES: CCCCCCCCCCCCCCCC(=O)N[C@@H](Cc1c[nH]c2ccccc12)C(=O)NCCCC[C@H](NC(=O)[C@H](CC(=O)O)NC(=O)[C@H](CO)NC(=O)[C@@H](NC(=O)[C@H](Cc1ccccc1)NC(=O)[C@@H](NC(=O)CNC(=O)[C@H](CCC(N)=O)NC(=O)C(C)(C)NC(=O)[C@@H](N)Cc1c[nH]cn1)[C@@H](C)O)[C@@H](C)O)C(=O)N[C@@H](CO)C(=O)N[C@@H](CCCCN)C(=O)N[C@@H](Cc1ccc(O)cc1)C(=O)N[C@@H](CC(C)C)C(=O)N[C@@H](CC(=O)O)C(=O)NC(C)(C)C(=O)N[C@@H](CCCNC(=N)N)C(=O)N[C@@H](CCCNC(=N)N)C(=O)N[C@@H](C)C(=O)N[C@@H](CCC(N)=O)C(=O)N[C@@H](CC(=O)O)C(=O)N[C@@H](Cc1ccccc1)C(=O)N[C@H](C(=O)N[C@@H](CS)C(=O)N[C@@H](Cc1c[nH]c2ccccc12)C(=O)N[C@@H](CC(C)C)C(=O)N[C@@H](CCSC)C(=O)N[C@@H](CC(N)=O)C(=O)N[C@H](C(N)=O)[C@@H](C)O)C(C)C
EC50 (Glucagon Receptor EC50, Table 20): 0.25 nM

Now from value to molecule:

EC50 (read-out: EC50 at Glucagon Receptor, Table 22): 0.653 ± 0.285 nM
SMILES: CSCC[C@H](NC(=O)[C@H](CC(C)C)NC(=O)[C@H](Cc1c[nH]c2ccccc12)NC(=O)[C@H](CCC(N)=O)NC(=O)[C@@H](NC(=O)[C@H](Cc1ccccc1)NC(=O)[C@H](CC(=O)O)NC(=O)[C@H](CCC(N)=O)NC(=O)[C@H](C)NC(=O)[C@H](CCCNC(=N)N)NC(=O)[C@H](CCCNC(=N)N)NC(=O)C(C)(C)NC(=O)[C@H](CC(=O)O)NC(=O)[C@H](CC(C)C)NC(=O)[C@H](Cc1ccc(O)cc1)NC(=O)[C@H](CCCCN)NC(=O)[C@H](CO)NC(=O)[C@H](Cc1ccc(O)cc1)NC(=O)[C@H](CC(=O)O)NC(=O)[C@H](CO)NC(=O)[C@@H](NC(=O)[C@H](Cc1ccccc1)NC(=O)[C@@H](NC(=O)CNC(=O)[C@H](CCC(N)=O)NC(=O)C(C)(C)NC(=O)[C@@H](N)Cc1c[nH]cn1)[C@@H](C)O)[C@@H](C)O)C(C)C)C(=O)N[C@@H](CC(N)=O)C(=O)N[C@H](C(N)=O)[C@@H](C)O [Peptide 26] (H-H[Aib]QGTFTSDYSKYLD[Aib]RRAQDFVQWLMNT-NH2; N-terminus assumed)

EC50 [1]: 0.007 nM
SMILES: CCCCCCCCCCCCCCCC(=O)N[C@@H](CCC(=O)N[C@@H](CCC(=O)NCCCC[C@H](NC(=O)[C@H](CC(=O)O)NC(=O)[C@H](CO)NC(=O)[C@@H](NC(=O)[C@H](Cc1ccccc1)NC(=O)[C@@H](NC(=O)CNC(=O)[C@H](CCC(N)=O)NC(=O)C(C)(C)NC(=O)[C@@H](N)Cc1c[nH]cn1)[C@@H](C)O)[C@@H](C)CC)C(=O)N[C@@H](CO)C(=O)N[C@@H](CCCCN)C(=O)N[C@@H](Cc1ccc(O)cc1)C(=O)N[C@@H](CC(C)C)C(=O)N[C@@H](CC(=O)O)C(=O)N[C@@H](CCC(=O)O)C(=O)N[C@@H](CCC(N)=O)C(=O)N[C@@H](C)C(=O)N[C@@H](C)C(=O)N[C@@H](CCCCN)C(=O)N[C@@H](CCC(=O)O)C(=O)N[C@@H](Cc1ccccc1)C(=O)N[C@H](C(=O)N[C@@H](C)C(=O)N[C@@H](Cc1c[nH]c2ccccc12)C(=O)N[C@@H](CC(C)C)C(=O)N[C@@H](CCSC)C(=O)N[C@@H](CC(N)=O)C(=O)N[C@H](C(N)=O)[C@@H](C)O)[C@@H](C)CC)C(=O)O)C(=O)O [compound 650]

EC50 [1]: 2.92 nM
SMILES: CCCCCCCCCCCCCCCC(=O)N[C@@H](CCC(=O)N[C@@H](CCC(=O)NCCCC[C@H](NC(=O)[C@H](CC(=O)O)NC(=O)[C@H](CO)NC(=O)[C@@H](NC(=O)[C@H](Cc1ccccc1)NC(=O)[C@@H](NC(=O)CNC(=O)[C@H](CCC(=O)O)NC(=O)C(C)(C)NC(=O)[C@@H](N)Cc1c[nH]cn1)[C@@H](C)O)[C@@H](C)O)C(=O)N[C@@H](CO)C(=O)N[C@@H](CCCCN)C(=O)N[C@@H](Cc1ccc(O)cc1)C(=O)N[C@@H](CC(C)C)C(=O)N[C@@H](CC(=O)O)C(=O)N[C@@H](CCC(=O)O)C(=O)N[C@@H](CCC(N)=O)C(=O)N[C@@H](C)C(=O)N[C@@H](C)C(=O)N[C@@H](CCCCN)C(=O)N[C@@H](CCC(=O)O)C(=O)N[C@@H](Cc1ccccc1)C(=O)N[C@H](C(=O)N[C@@H](C)C(=O)N[C@@H](Cc1c[nH]c2ccccc12)C(=O)N[C@@H](CC(C)C)C(=O)N[C@@H](CCSC)C(=O)N[C@@H](CC(N)=O)C(=O)N[C@H](C(N)=O)[C@@H](C)O)[C@@H](C)CC)C(=O)O)C(=O)O [compound 648] (H-H[Aib]EGTFTSDK([γGlu-γGlu-Palmitoyl])SKYLDEQAAKEFIAWLMNT-NH2; N-terminus assumed)

EC50 [1]: 46.1 nM
SMILES: CCCCCCCCCCCCCCCC(=O)NCCCC[C@H](NC(=O)[C@H](CC(=O)O)NC(=O)[C@H](CO)NC(=O)[C@@H](NC(=O)[C@H](Cc1ccccc1)NC(=O)[C@@H](NC(=O)CNC(=O)[C@H](CCC(=O)O)NC(=O)C(C)(C)NC(=O)[C@@H](N)Cc1c[nH]cn1)[C@@H](C)O)[C@@H](C)O)C(=O)N[C@@H](CO)C(=O)N[C@@H](CCCCN)C(=O)N[C@@H](Cc1ccc(O)cc1)C(=O)N[C@@H](CC(C)C)C(=O)N[C@@H](CC(=O)O)C(=O)N[C@@H](CCC(=O)O)C(=O)N[C@@H](CCC(N)=O)C(=O)N[C@@H](C)C(=O)N[C@@H](C)C(=O)N[C@@H](CCCCN)C(=O)N[C@@H](CCC(=O)O)C(=O)N[C@@H](Cc1ccccc1)C(=O)N[C@H](C(=O)N[C@@H](C)C(=O)N[C@@H](Cc1c[nH]c2ccccc12)C(=O)N[C@@H](CC(C)C)C(=O)N[C@@H](CCSC)C(=O)N[C@@H](CC(N)=O)C(=O)N[C@H](C(N)=O)[C@@H](C)O)[C@@H](C)CC [compound 647] (H-H[Aib]EGTFTSDK(Palmitoyl)SKYLDEQAAKEFIAWLMNT-NH2; N-terminus assumed)

EC50 [1]: 0.008 nM
SMILES: CCCCCCCCCCCCCCCC(=O)N[C@@H](CCC(=O)N[C@@H](CCC(=O)NCCCC[C@H](NC(=O)[C@H](CC(=O)O)NC(=O)[C@H](CO)NC(=O)[C@@H](NC(=O)[C@H](Cc1ccccc1)NC(=O)[C@@H](NC(=O)CNC(=O)[C@H](CCC(N)=O)NC(=O)[C@@H](CO)NC(=O)[C@@H](N)Cc1c[nH]cn1)[C@@H](C)O)[C@@H](C)O)C(=O)N[C@@H](CO)C(=O)N[C@@H](CCCCN)C(=O)N[C@@H](Cc1ccc(O)cc1)C(=O)N[C@@H](CC(C)C)C(=O)N[C@@H](CC(=O)O)C(=O)N[C@@H](CCC(=O)O)C(=O)N[C@@H](CCC(N)=O)C(=O)N[C@@H](C)C(=O)N[C@@H](C)C(=O)N[C@@H](CCCCN)C(=O)N[C@@H](CCC(=O)O)C(=O)N[C@@H](Cc1ccccc1)C(=O)N[C@H](C(=O)N[C@@H](C)C(=O)N[C@@H](Cc1c[nH]c2ccccc12)C(=O)N[C@@H](CC(C)C)C(=O)N[C@@H](CCSC)C(=O)N[C@@H](CC(N)=O)C(=O)N[C@H](C(N)=O)[C@@H](C)O)[C@@H](C)CC)C(=O)O)C(=O)O [compound 644]
